According to PubChem BioAssay AID1963424 (Molecular Pharmacology Branch, DTP, NCI, 2024):

System: 327498-153-R-J2-PDC complex spheroid growth, % test/control
Assay: Anticancer human tumor 327498-153-R-J2-PDC patient-derived uterine carcinosarcoma cell line growth inhibition [Asc]
Conditions: for IC50: curve of first compound; for viability, T/C: stronger effect = lower value
How it was run: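 Concentration series start at each agent's clinical Cmax, or at 10 microM when none is established, and drop in half-log steps; agents are applied alone or together to complex spheroids built with HUVEC and hMSC.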

[1] = second compound 0.01 µM, first compound 0.0316 µM
[2] = second compound 0.01 µM, first compound 0.1 µM
[3] = second compound 0.01 µM, first compound 0.316 µM
[4] = second compound 0.01 µM, first compound 1 µM
[5] = second compound 0.01 µM, first compound 3.16 µM
[6] = second compound 0.01 µM, first compound 10 µM
[7] = second compound 0.0316 µM, first compound 0.0316 µM
[8] = second compound 0.0316 µM, first compound 0.1 µM
[9] = second compound 0.0316 µM, first compound 0.316 µM
[10] = second compound 0.0316 µM, first compound 1 µM
[11] = second compound 0.0316 µM, first compound 3.16 µM
[12] = second compound 0.0316 µM, first compound 10 µM
[13] = second compound 0.1 µM, first compound 0.0316 µM
[14] = second compound 0.1 µM, first compound 0.1 µM
[15] = second compound 0.1 µM, first compound 0.316 µM
[16] = second compound 0.1 µM, first compound 1 µM
[17] = second compound 0.1 µM, first compound 3.16 µM
[18] = second compound 0.1 µM, first compound 10 µM
[19] = second compound 0.316 µM, first compound 0.0316 µM
[20] = second compound 0.316 µM, first compound 0.1 µM
[21] = second compound 0.316 µM, first compound 0.316 µM
[22] = second compound 0.316 µM, first compound 1 µM
[23] = second compound 0.316 µM, first compound 3.16 µM
[24] = second compound 0.316 µM, first compound 10 µM
[25] = second compound 1 µM, first compound 0.0316 µM
[26] = second compound 1 µM, first compound 0.1 µM
[27] = second compound 1 µM, first compound 0.316 µM
[28] = second compound 1 µM, first compound 1 µM
[29] = second compound 1 µM, first compound 3.16 µM
[30] = second compound 1 µM, first compound 10 µM
[31] = second compound 0.01 µM, first compound 0.00949 µM
[32] = second compound 0.01 µM, first compound 0.03 µM
[33] = second compound 0.01 µM, first compound 0.0949 µM
[34] = second compound 0.01 µM, first compound 0.3 µM
[35] = second compound 0.01 µM, first compound 0.949 µM
[36] = second compound 0.01 µM, first compound 3 µM
[37] = second compound 0.0316 µM, first compound 0.00949 µM
[38] = second compound 0.0316 µM, first compound 0.03 µM
[39] = second compound 0.0316 µM, first compound 0.0949 µM
[40] = second compound 0.0316 µM, first compound 0.3 µM
[41] = second compound 0.0316 µM, first compound 0.949 µM
[42] = second compound 0.0316 µM, first compound 3 µM
[43] = second compound 0.1 µM, first compound 0.00949 µM
[44] = second compound 0.1 µM, first compound 0.03 µM
[45] = second compound 0.1 µM, first compound 0.0949 µM
[46] = second compound 0.1 µM, first compound 0.3 µM
[47] = second compound 0.1 µM, first compound 0.949 µM
[48] = second compound 0.1 µM, first compound 3 µM
[49] = second compound 0.316 µM, first compound 0.00949 µM
[50] = second compound 0.316 µM, first compound 0.03 µM
[51] = second compound 0.316 µM, first compound 0.0949 µM
[52] = second compound 0.316 µM, first compound 0.3 µM
[53] = second compound 0.316 µM, first compound 0.949 µM
[54] = second compound 0.316 µM, first compound 3 µM
[55] = second compound 1 µM, first compound 0.00949 µM
[56] = second compound 1 µM, first compound 0.03 µM
[57] = second compound 1 µM, first compound 0.0949 µM
[58] = second compound 1 µM, first compound 0.3 µM
[59] = second compound 1 µM, first compound 0.949 µM
[60] = second compound 1 µM, first compound 3 µM
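Note: spheroids exposed to compound for 7 days after 3 days of growth.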
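Throughout, for viability, T/C: 100% = DMSO vehicle control wells.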

SMILES: C#Cc1c(F)ccc2cc(O)cc(-c3ncc4c(N5CC6CCC(C5)N6)nc(OCC56CCCN5CC(F)C6)nc4c3F)c12 (stereo not given) + CNC(C)C(=O)NC1CN(S(=O)(=O)c2cccc(S(=O)(=O)N3CCC4CCC(C(=O)NC(c5ccccc5)c5ccccc5)N4C(=O)C(NC(=O)C(C)NC)C3)c2)CCC2CCC(C(=O)NC(c3ccccc3)c3ccccc3)N2C1=O
- IC50 (second compound 0.01 µM): > 10000 nM
- IC50 (second compound 0.0316 µM): > 10000 nM
- IC50 (second compound 0.1 µM): > 10000 nM
- IC50 (second compound 0.316 µM): > 10000 nM
- IC50 (second compound 1 µM): > 10000 nM
- viability, T/C [1]: 102%
- viability, T/C [2]: 97.8%
- viability, T/C [3]: 95.8%
- viability, T/C [4]: 88.6%
- viability, T/C [5]: 68.8%
- viability, T/C [6]: 53%
- viability, T/C [7]: 103%
- viability, T/C [8]: 97.3%
- viability, T/C [9]: 102%
- viability, T/C [10]: 77%
- viability, T/C [11]: 61.9%
- viability, T/C [12]: 55.1%
- viability, T/C [13]: 103%
- viability, T/C [14]: 95.4%
- viability, T/C [15]: 97.5%
- viability, T/C [16]: 82.8%
- viability, T/C [17]: 69.4%
- viability, T/C [18]: 61.9%
- viability, T/C [19]: 106%
- viability, T/C [20]: 104%
- viability, T/C [21]: 92.4%
- viability, T/C [22]: 82.3%
- viability, T/C [23]: 74.5%
- viability, T/C [24]: 55.6%
- viability, T/C [25]: 96.3%
- viability, T/C [26]: 96.1%
- viability, T/C [27]: 97%
- viability, T/C [28]: 84.9%
- viability, T/C [29]: 74%
- viability, T/C [30]: 67%

SMILES: C=C(F)C(=O)N1CCN(c2nc(OCC3CCCN3C)nc3c2CCN(c2cccc4cccc(Cl)c24)C3)CC1CC#N (stereo not given) + CNC(C)C(=O)NC1CN(S(=O)(=O)c2cccc(S(=O)(=O)N3CCC4CCC(C(=O)NC(c5ccccc5)c5ccccc5)N4C(=O)C(NC(=O)C(C)NC)C3)c2)CCC2CCC(C(=O)NC(c3ccccc3)c3ccccc3)N2C1=O
- IC50 (second compound 0.01 µM): 1310 nM
- IC50 (second compound 0.0316 µM): 1180 nM
- IC50 (second compound 0.1 µM): 1350 nM
- IC50 (second compound 0.316 µM): 1200 nM
- IC50 (second compound 1 µM): 985 nM
- viability, T/C [1]: 74.3%
- viability, T/C [2]: 71%
- viability, T/C [3]: 58.4%
- viability, T/C [4]: 61.6%
- viability, T/C [5]: 14.5%
- viability, T/C [6]: 0.14%
- viability, T/C [7]: 73.2%
- viability, T/C [8]: 71.6%
- viability, T/C [9]: 64.5%
- viability, T/C [10]: 56.8%
- viability, T/C [11]: 16.2%
- viability, T/C [12]: 0.14%
- viability, T/C [13]: 76%
- viability, T/C [14]: 67.6%
- viability, T/C [15]: 74.3%
- viability, T/C [16]: 62.6%
- viability, T/C [17]: 14.1%
- viability, T/C [18]: 0.13%
- viability, T/C [19]: 75.3%
- viability, T/C [20]: 74.7%
- viability, T/C [21]: 66%
- viability, T/C [22]: 58.1%
- viability, T/C [23]: 11.2%
- viability, T/C [24]: 0.14%
- viability, T/C [25]: 86%
- viability, T/C [26]: 78.8%
- viability, T/C [27]: 66.3%
- viability, T/C [28]: 55.5%
- viability, T/C [29]: 15%
- viability, T/C [30]: 0.21%

SMILES: CCN1C(C(=O)NC23CCC(C(=O)O)(CC2)CC3)C(c2cccc(Cl)c2F)C2(C(=O)Nc3cc(Cl)ccc32)C12CCCCC2 (stereo not given) + CNC(C)C(=O)NC1CN(S(=O)(=O)c2cccc(S(=O)(=O)N3CCC4CCC(C(=O)NC(c5ccccc5)c5ccccc5)N4C(=O)C(NC(=O)C(C)NC)C3)c2)CCC2CCC(C(=O)NC(c3ccccc3)c3ccccc3)N2C1=O
- IC50 (second compound 0.01 µM): 193 nM
- IC50 (second compound 0.0316 µM): 151 nM
- IC50 (second compound 0.1 µM): 173 nM
- IC50 (second compound 0.316 µM): 173 nM
- IC50 (second compound 1 µM): 150 nM
- viability, T/C [31]: 88.1%
- viability, T/C [32]: 90.9%
- viability, T/C [33]: 72.2%
- viability, T/C [34]: 35.9%
- viability, T/C [35]: 8.7%
- viability, T/C [36]: 3.12%
- viability, T/C [37]: 90.8%
- viability, T/C [38]: 83.9%
- viability, T/C [39]: 62%
- viability, T/C [40]: 32.4%
- viability, T/C [41]: 7.36%
- viability, T/C [42]: 1.14%
- viability, T/C [43]: 97.8%
- viability, T/C [44]: 87.8%
- viability, T/C [45]: 67.2%
- viability, T/C [46]: 35.1%
- viability, T/C [47]: 9.87%
- viability, T/C [48]: 1.93%
- viability, T/C [49]: 101%
- viability, T/C [50]: 89.7%
- viability, T/C [51]: 67.1%
- viability, T/C [52]: 35.8%
- viability, T/C [53]: 9.28%
- viability, T/C [54]: 5.81%
- viability, T/C [55]: 100%
- viability, T/C [56]: 82.1%
- viability, T/C [57]: 64.8%
- viability, T/C [58]: 32.3%
- viability, T/C [59]: 4.68%
- viability, T/C [60]: 1.29%

SMILES: Cc1nc(N2CCC3(CC2)COC(C)C3N)c(CO)nc1Sc1ccnc(N)c1Cl (stereo not given) + CNC(C)C(=O)NC1CN(S(=O)(=O)c2cccc(S(=O)(=O)N3CCC4CCC(C(=O)NC(c5ccccc5)c5ccccc5)N4C(=O)C(NC(=O)C(C)NC)C3)c2)CCC2CCC(C(=O)NC(c3ccccc3)c3ccccc3)N2C1=O
- IC50 (second compound 0.01 µM): > 3000 nM
- IC50 (second compound 0.0316 µM): 1550 nM
- IC50 (second compound 0.1 µM): > 3000 nM
- IC50 (second compound 0.316 µM): > 3000 nM
- IC50 (second compound 1 µM): > 3000 nM
- viability, T/C [31]: 102%
- viability, T/C [32]: 101%
- viability, T/C [33]: 82.3%
- viability, T/C [34]: 71.6%
- viability, T/C [35]: 66.8%
- viability, T/C [36]: 48.7%
- viability, T/C [37]: 95.7%
- viability, T/C [38]: 90.2%
- viability, T/C [39]: 81.6%
- viability, T/C [40]: 72.2%
- viability, T/C [41]: 53.1%
- viability, T/C [42]: 44%
- viability, T/C [43]: 97.4%
- viability, T/C [44]: 92.7%
- viability, T/C [45]: 87.8%
- viability, T/C [46]: 68.5%
- viability, T/C [47]: 56.2%
- viability, T/C [48]: 59.9%
- viability, T/C [49]: 96.1%
- viability, T/C [50]: 93.5%
- viability, T/C [51]: 91%
- viability, T/C [52]: 75.8%
- viability, T/C [53]: 63.7%
- viability, T/C [54]: 50%
- viability, T/C [55]: 94.3%
- viability, T/C [56]: 87.7%
- viability, T/C [57]: 78.6%
- viability, T/C [58]: 72.3%
- viability, T/C [59]: 59.8%
- viability, T/C [60]: 52.1%
